{"source": "patent US10105343B2", "about": "“Cannabis based compositions and methods of treating hypertension” (KUBBY PATENT AND LICENSES, LIMITED LIABILITY COMPANY, priority 2010, dated 2018)", "test_system": "hypertension", "experiment": "Inventor's own case: control of hypertension in adrenal cancer (anecdotal patient report)", "format": "in vivo, human", "conditions": "single patient (the inventor)", "text": "In 1999, this inventor's doctors told them that after completing extensive medical tests at the University of Southern California's School of Medicine their prognosis was poor. According to Dr. Vincent DeQuattro, a USC professor and world authority on adrenal cancer, their blood contained deadly levels of adrenaline, more than enough to kill anyone else.\nNearly everyone else who has ever had the malignant form of the inventor's disease has died within a few years. The inventor credits their survival, now 35 years since their diagnosis, to medical marijuana, something DeQuattro considered a “medical miracle.” Dr. DeQuattro has written that the inventor could suffer a heart attack or stroke if deprived of marijuana and that no other form of therapy is available.\nDespite the seriousness and dramatic dangers of their disease, a person was arrested and jailed for using the only medicine that worked for them. During their first few days of incarceration, they experienced excruciating pain, a vicious high blood-pressure crisis, passed blood in their urine and over a period of 60 days, and lost 33 pounds.\nThat's when […] started to experiment with lozenges to see if […] could create a natural cannabis based lozenge that would control hypertension, without undesirable side effects.\nThis led the Inventor to the development that is taught in this invention."}
{"smiles": "CCCCCc1cc(O)c2c(c1)OC(C)(C)[C@@H]1CCC(C)=C[C@@H]21", "note": "[Marinol, tetrahydrocannabinol]", "values": [{"measurement": "undesirable side effects", "result": "constant nausea"}, {"measurement": "controlling hypertension", "setting": "adrenal cancer with deadly adrenaline levels", "result": "extremely effective"}, {"measurement": "substitute for whole cannabis in treating the inventor's otherwise fatal disease", "setting": "during incarceration", "result": "acceptable, if not ideal, substitute"}]}
